The values that follow come from patent publication US7786141B2 (Vertex Pharmaceuticals Incorporated, priority 2004, dated 2010).

One assay concerns the target T1, M1 muscarinic receptor (Homo sapiens, UniProt P11229).
T1 construct: expressed in transfected cells; host or cells: CHO (M1-CHO)
T1 sequence (P11229 1-460): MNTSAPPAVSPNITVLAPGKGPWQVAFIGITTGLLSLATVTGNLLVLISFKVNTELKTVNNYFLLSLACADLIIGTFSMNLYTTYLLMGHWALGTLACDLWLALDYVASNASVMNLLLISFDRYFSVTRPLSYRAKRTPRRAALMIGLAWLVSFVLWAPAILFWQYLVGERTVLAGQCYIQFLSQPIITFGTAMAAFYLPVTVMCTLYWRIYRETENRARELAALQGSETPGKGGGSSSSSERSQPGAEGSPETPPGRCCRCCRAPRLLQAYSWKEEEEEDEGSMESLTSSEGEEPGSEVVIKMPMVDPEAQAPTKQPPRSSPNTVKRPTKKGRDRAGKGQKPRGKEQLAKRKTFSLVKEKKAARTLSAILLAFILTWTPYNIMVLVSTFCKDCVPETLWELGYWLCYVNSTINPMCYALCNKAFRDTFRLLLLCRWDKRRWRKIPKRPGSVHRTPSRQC
In words: Functional mobilization of intracellular calcium (FLIPR) in M1-CHO cells. In kind it is cell-based. In short, it runs like this:
(§1)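 Measured via Fluo-3 fluorescence on a FLIPR, CHO cells with either muscarinic subtype received compound in 0.5% DMSO. Antagonism was assessed after 15 min pre-incubation followed by carbachol at each subtype's EC80; agonism from compound addition alone.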

In a further assay the target is T2, M4 muscarinic receptor (Homo sapiens, UniProt P08173).
T2 construct: expressed in transfected cells; host or cells: CHO (M4-CHO)
T2 sequence (P08173 1-479): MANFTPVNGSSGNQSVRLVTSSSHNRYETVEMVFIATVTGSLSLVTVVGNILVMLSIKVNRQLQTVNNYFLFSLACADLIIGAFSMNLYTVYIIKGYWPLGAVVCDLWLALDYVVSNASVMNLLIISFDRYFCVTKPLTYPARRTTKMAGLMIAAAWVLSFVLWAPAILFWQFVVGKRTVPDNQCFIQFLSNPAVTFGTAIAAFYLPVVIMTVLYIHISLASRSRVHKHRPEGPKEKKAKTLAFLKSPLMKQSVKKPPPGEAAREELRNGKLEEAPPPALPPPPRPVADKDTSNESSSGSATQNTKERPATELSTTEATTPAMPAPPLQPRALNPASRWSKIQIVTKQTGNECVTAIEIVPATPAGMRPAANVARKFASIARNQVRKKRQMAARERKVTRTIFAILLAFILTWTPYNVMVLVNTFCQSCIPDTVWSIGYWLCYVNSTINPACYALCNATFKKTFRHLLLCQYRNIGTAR
In words: Functional mobilization of intracellular calcium (FLIPR) in M4-CHO cells. It counts as cell-based. In short, it runs like this:
as §1

[1] abbreviates: Table 4, 100% efficacy is the maximum response obtained with the Carbachol control.
The mark [2] stands for this setting: Table 4, M1 receptor, calcium mobilization (FLIPR).
[3] abbreviates: Table 4, M4 receptor, calcium mobilization (FLIPR).
The mark [4] stands for this setting: M1 receptor, calcium mobilization.
Setting [5] is: M1 receptor, calcium mobilization, read-out: M1 Efficacy.
The mark [6] stands for this setting: M4 receptor, calcium mobilization.
The mark [7] stands for this setting: M4 receptor, calcium mobilization, read-out: M4 Efficacy.
Where [8] appears, read: Table 4, modulating M1 receptor.
The mark [9] stands for this setting: Table 4, modulating M4 receptor.

Like-named read-outs stand apart in the source and are kept apart here.

With `CC(=O)CN1CC2(CCN(C[C@H]3C[C@H]4C=CC3C4)CC2)c2cc(F)ccc21` [compound 877], the Emax on M1 muscarinic receptor (setting [1]) and at M4 muscarinic receptor (setting [1]) was 25 to 100% in each case. The “M1 Activity” value on M1 muscarinic receptor (setting [2]) is listed as “xxx (activity was measured to be less than 2.0 μM)”. Further, on M4 muscarinic receptor (setting [3]), the “M4 Activity” value is reported as “xxx (activity was measured to be less than 2.0 μM)”.
As to `CCOC(=O)N1CCC(N2CCC3(CC2)CN(C(C)=O)c2ccc(CC)cc23)CC1` [compound 137], the “M1 Activity” value at M1 muscarinic receptor (setting [4]) is given as “xxx (activity was measured to be less than 0.1 μM)”. Besides, the Emax on M1 muscarinic receptor (setting [5]) and on M4 muscarinic receptor (setting [7]) was greater than 85% in each case. For the same compound, the “M4 Activity” value on M4 muscarinic receptor (setting [6]) is “x (activity was measured to be greater than 1.0 μM)”.
For the compound `CN(C)C(=O)N1CC2(CCN(C3CCN(c4cncnc4)CC3)CC2)c2cc(F)ccc21` [compound 528], the Emax on M1 muscarinic receptor (setting [1]) and at M4 muscarinic receptor (setting [1]) was 25 to 100% in each case. Moreover, the “M1 Activity” value at M1 muscarinic receptor (setting [8]) is “xx (activity was measured to be between 2.0 μM and 5.0 μM)”. In addition, on M4 muscarinic receptor (setting [9]), the “M4 Activity” value was “xxx (activity was measured to be less than 2.0 μM)”.
For the compound `CCCOC(=O)N1CCC(N2CCC3(CC2)CN(CCOC)c2ccc(F)cc23)CC1` [compound 596], the Emax at M1 muscarinic receptor (setting [1]) and at M4 muscarinic receptor (setting [1]) was 25 to 100% in each case. For the same compound, at M1 muscarinic receptor (setting [8]), the “M1 Activity” value was “xxx (activity was measured to be less than 2.0 μM)”. Moreover, the “M4 Activity” value at M4 muscarinic receptor (setting [9]) is on record as “xxx (activity was measured to be less than 2.0 μM)”.
On to `CCOC(=O)N1CCC(N2CCC3(CC2)CN(C(C)=O)c2cccc(OC)c23)CC1` [compound 560], for which the Emax at M1 muscarinic receptor (setting [1]) is 25 to 100%; on M4 muscarinic receptor (setting [1]), less than 25%. In addition, the “M1 Activity” value on M1 muscarinic receptor (setting [8]) is “xxx (activity was measured to be less than 2.0 μM)”. The “M4 Activity” value on M4 muscarinic receptor (setting [9]) was “x (activity was measured to be greater than 5.0 μM)”.
As to `COC(=O)N1CC[C@H](CN2CCC3(CC2)CN(C(=O)N(C)C)c2ccc(F)cc23)C1` [compound 807], the Emax at M1 muscarinic receptor (setting [1]) and on M4 muscarinic receptor (setting [1]) was 25 to 100% in each case. In addition, the “M1 Activity” value at M1 muscarinic receptor (setting [2]) is “xxx (activity was measured to be less than 2.0 μM)”. Further, on M4 muscarinic receptor (setting [3]), the “M4 Activity” value is listed as “xxx (activity was measured to be less than 2.0 μM)”.
As for `c1ccc2c(c1)CCCC21CCN(C2C[C@@H]3CC[C@@H](C2)C3)CC1` (stereo partly drawn) [compound 657], the Emax at M1 muscarinic receptor (setting [1]) and at M4 muscarinic receptor (setting [1]) was 25 to 100% each time. The “M1 Activity” value on M1 muscarinic receptor (setting [8]) is “xx (activity was measured to be between 2.0 μM and 5.0 μM)”. Further, the “M4 Activity” value on M4 muscarinic receptor (setting [9]) is “xxx (activity was measured to be less than 2.0 μM)”.
Regarding `CS(=O)(=O)N[C@@H]1CC2(CCN(C[C@H]3C[C@H]4CC[C@H]3C4)CC2)c2ccccc21` [compound 227], the “M1 Activity” value at M1 muscarinic receptor (setting [4]) is given as “xxx (activity was measured to be less than 0.1 μM)”. The Emax at M1 muscarinic receptor (setting [5]) and on M4 muscarinic receptor (setting [7]) was greater than 85% throughout. The “M4 Activity” value on M4 muscarinic receptor (setting [6]) is recorded as “xxx (activity was measured to be less than 0.1 μM)”.
Take `CC(C)COC(=O)N1C2CCC1CC(N1CCC3(CC1)COc1ccc(F)cc13)C2` (stereo not drawn) [compound 160]: the “M1 Activity” value on M1 muscarinic receptor (setting [4]) is on record as “xxx (activity was measured to be less than 0.1 μM)”. In addition, the Emax at M1 muscarinic receptor (setting [5]) and at M4 muscarinic receptor (setting [7]) was greater than 85% in each case. Moreover, the “M4 Activity” value at M4 muscarinic receptor (setting [6]) is “xx (activity was measured to be between 0.1 μM and 1.0 μM)”.
Turning to `CN(C)C(=O)N1CC2(CCN(C3CCN(c4cccnc4)CC3)CC2)c2cc(F)ccc21` [compound 535], the Emax at M1 muscarinic receptor (setting [1]) and at M4 muscarinic receptor (setting [1]) was 25 to 100% in each case. Moreover, the “M1 Activity” value at M1 muscarinic receptor (setting [8]) is listed as “xxx (activity was measured to be less than 2.0 μM)”. Moreover, the “M4 Activity” value on M4 muscarinic receptor (setting [9]) was “xxx (activity was measured to be less than 2.0 μM)”.
As to `Clc1ccc2c(c1)C1(CCN([C@H]3C[C@@H]4CC[C@@H]3C4)CC1)CO2` [compound 1], the “M1 Activity” value on M1 muscarinic receptor (setting [4]) is “xx (activity was measured to be between 0.1 μM and 1.0 μM)”. Further, the Emax was 65 to 85% at M1 muscarinic receptor (setting [5]) and greater than 85% on M4 muscarinic receptor (setting [7]). In addition, the “M4 Activity” value on M4 muscarinic receptor (setting [6]) is “xx (activity was measured to be between 0.1 μM and 1.0 μM)”.
Consider `COc1cc2c(cc1OC)C1(CCN([C@H]3CC4CC[C@@H]3C4)CC1)C[C@@H]2NC(C)=O` [compound 1002], for which the Emax on M1 muscarinic receptor (setting [1]) and at M4 muscarinic receptor (setting [1]) was less than 25% each time. For the same compound, the “M1 Activity” value on M1 muscarinic receptor (setting [2]) is “x (activity was measured to be greater than 5.0 μM)”. Further, at M4 muscarinic receptor (setting [3]), the “M4 Activity” value is “x (activity was measured to be greater than 5.0 μM)”.
In the case of `CN(C)C(=O)N1CC2(CCN(C3CCN(c4nccs4)CC3)CC2)c2cc(F)ccc21` [compound 957], the Emax on M1 muscarinic receptor (setting [1]) and at M4 muscarinic receptor (setting [1]) was 25 to 100% throughout. Besides, at M1 muscarinic receptor (setting [2]), the “M1 Activity” value was “xxx (activity was measured to be less than 2.0 μM)”. The “M4 Activity” value at M4 muscarinic receptor (setting [3]) is recorded as “xxx (activity was measured to be less than 2.0 μM)”.
On to `CCOC(=O)N1CCC(N2CCC3(CC2)CN(C(C)=O)c2cccc(C)c23)CC1` [compound 450], for which the Emax is 25 to 100% on M1 muscarinic receptor (setting [1]) and less than 25% at M4 muscarinic receptor (setting [1]). Further, on M1 muscarinic receptor (setting [8]), the “M1 Activity” value is on record as “xxx (activity was measured to be less than 2.0 μM)”. At M4 muscarinic receptor (setting [9]), the “M4 Activity” value is “x (activity was measured to be greater than 5.0 μM)”.
As for `COCCOC(=O)N1CC2(CCN(C3CC4CCC(C3)N4C(=O)O[C@@H]3CCOC3)CC2)c2cc(F)ccc21` (stereo partly drawn) [compound 304], the “M1 Activity” value at M1 muscarinic receptor (setting [4]) is listed as “xxx (activity was measured to be less than 0.1 μM)”. For the same compound, the Emax at M1 muscarinic receptor (setting [5]) was 65 to 85%; on M4 muscarinic receptor (setting [7]), less than 65%. Moreover, at M4 muscarinic receptor (setting [6]), the “M4 Activity” value is “x (activity was measured to be greater than 1.0 μM)”.
In the case of `COC(=O)N1C2CCC1CC(N1CCC3(CC1)COc1ccc(F)cc13)C2` (stereo not drawn) [compound 156], at M1 muscarinic receptor (setting [4]), the “M1 Activity” value was “xxx (activity was measured to be less than 0.1 μM)”. The Emax on M1 muscarinic receptor (setting [5]) is 65 to 85%; on M4 muscarinic receptor (setting [7]) it was greater than 85%. Moreover, the “M4 Activity” value at M4 muscarinic receptor (setting [6]) was “xxx (activity was measured to be less than 0.1 μM)”.
`CCOC(=O)N1CCC(N2CCC3(CC2)CNc2ccccc23)CC1` [compound 352]: the “M1 Activity” value at M1 muscarinic receptor (setting [4]) was “xxx (activity was measured to be less than 0.1 μM)”. Besides, the Emax on M1 muscarinic receptor (setting [5]) and at M4 muscarinic receptor (setting [7]) was greater than 85% throughout. Besides, the “M4 Activity” value on M4 muscarinic receptor (setting [6]) is listed as “x (activity was measured to be greater than 1.0 μM)”.
In the case of `CC(=O)NC1CCC2(CCN(CCC3CCCN(S(C)(=O)=O)C3)CC2)c2ccccc21` (stereo not drawn) [compound 541], the Emax at M1 muscarinic receptor (setting [1]) is 25 to 100%; at M4 muscarinic receptor (setting [1]) it was less than 25%. In addition, the “M1 Activity” value at M1 muscarinic receptor (setting [8]) was “xxx (activity was measured to be less than 2.0 μM)”. In addition, at M4 muscarinic receptor (setting [9]), the “M4 Activity” value is reported as “x (activity was measured to be greater than 5.0 μM)”.
On to `CCOC(=O)N1C2CCC1CC(N1CCC3(CC1)CN(C(=O)c1snnc1C)c1ccc(F)cc13)C2` (stereo not drawn) [compound 59], for which, at M1 muscarinic receptor (setting [4]), the “M1 Activity” value is reported as “xxx (activity was measured to be less than 0.1 μM)”. The Emax at M1 muscarinic receptor (setting [5]) was less than 65%; at M4 muscarinic receptor (setting [7]) it was 65 to 85%. Moreover, the “M4 Activity” value at M4 muscarinic receptor (setting [6]) was “xx (activity was measured to be between 0.1 μM and 1.0 μM)”.
For the compound `Cc1cc(C(=O)N2CCC(N3CCC4(CC3)CN(C(=O)N(C)C)c3ccc(F)cc34)CC2)no1` [compound 804], the Emax on M1 muscarinic receptor (setting [1]) and on M4 muscarinic receptor (setting [1]) was less than 25% each time. On M1 muscarinic receptor (setting [2]), the “M1 Activity” value was “x (activity was measured to be greater than 5.0 μM)”. In addition, the “M4 Activity” value on M4 muscarinic receptor (setting [3]) is “x (activity was measured to be greater than 5.0 μM)”.
With `C#CCOC(=O)N1CCC(CN2CCC3(CC2)CN(C(C)=O)c2ccc(F)cc23)CC1` [compound 316], the “M1 Activity” value at M1 muscarinic receptor (setting [4]) is listed as “x (activity was measured to be greater than 1.0 μM)”. Also, the Emax on M1 muscarinic receptor (setting [5]) and at M4 muscarinic receptor (setting [7]) was less than 65% in each case. In addition, the “M4 Activity” value at M4 muscarinic receptor (setting [6]) was “x (activity was measured to be greater than 1.0 μM)”.
